Reference: paper PMC5362113 (Journal of medicinal chemistry, 2016)
Values joined by “and” are separate entries in the source; they are usually repeats but may differ in a detail not shown here. Identical values can stand only once.

Key:
[1] = Mouse oral pharmacokinetics; type: in vivo; settings: mice, 50 mg/kg oral, Tween 80/EtOH/DMSO vehicle
[2] = tested on: T. b. brucei (strain BF427); assay: T. brucei growth inhibition assay; type: cell-based; settings: T. b. brucei BF427, 48 h, Alamar Blue
[3] = In vitro liver microsome assay, mouse; type: in vitro ADME; settings: pooled liver microsomes
[4] = In vitro liver microsome assay, human; type: in vitro ADME; settings: pooled liver microsomes
[5] = tested on: CRL-8155 (human lymphoblasts); assay: Cytotoxicity in mammalian cells, CRL-8155; settings: 48 h, growth inhibition by 50%
[6] = tested on: HepG2 cells (human hepatocellular carcinoma); assay: Cytotoxicity in mammalian cells, HepG2; type: cell-based; settings: human hepatocytes, 48 h, growth inhibition by 50%
[7] = Brain time-course experiment of compound 57 after oral dosing; type: in vivo; settings: mice, single oral dose 50 mg/kg
[8] = Brain:plasma compound concentration measurements in mice, 1 h post ip dose; type: in vivo; settings: single ip dose 5 mg/kg, 1 h postdose
[9] = Efficacy PK in chronic model; type: in vivo, mice; settings: 50 mg/kg po b.i.d., prior to dose 15 (predose)
[10] = Efficacy PK in acute model; type: in vivo, mice; settings: 50 mg/kg po b.i.d., prior to dose 7 (predose)

O=C(Nc1ccc2sc(-c3ccc(F)c(F)c3)nc2c1)N1C[C@@H](F)[C@H](F)C1 [Compound 59]
percent of Cmax remaining at the 24 h time point [1]: 34%
percent of Cmax remaining at the 32 h time point [1]: > 17%

O=C(Nc1ccc2sc(-c3cccc(F)c3)nc2c1)N1CCN(C(=O)Nc2ccc3sc(-c4cccc(F)c4)nc3c2)CC1 [Compound 49]
T. brucei EC50 [2]: No activity was detected

O=C(Nc1ccc2oc(-c3ccccc3)nc2c1)c1ccccc1 [Compound 30]
half-life at 1.5 μM [3]: 10 to 20 min
half-life at 1.5 μM [4]: ≥ 60 min

O=C(Nc1ccc2sc(-c3ccccc3)nc2c1)N1CCCCC1 [Compound 40]
half-life at 1.5 μM [3]: > 20 min

O=C(Nc1ccc2sc(-c3ccc(F)c(F)c3)nc2c1)N1CC[C@H](F)C1 [Compound 57, (S)-2-(3,4-Difluorophenyl)-5-(3-fluoro-N-pyrrolidylamido)-benzothiazole]
CRL-8155 EC50 [5]: no detectable toxicity
HepG2 EC50 [6]: no detectable toxicity
percent of Cmax remaining at the 24 h time point [1]: Less than 1%
Cmax, brain [7]: 54.84 ± 4.64 µM
[compd]brain ([7]; 24 h): submicromolar
[compd]plasma ([7]; 24 h, LLQ is 0.010 μM, 50 mg/kg): undetectable
[compd]brain [8]: 9.07 µM and 9.07 ± 3.973 µM
average plasma level [9]: 15.8 ± 8.7 µM
average plasma level [10]: 9.1 ± 7.6 µM

O=C(Nc1ccc2sc(-c3ccccc3)nc2c1)N1CCCC1 [Compound 38]
half-life at 1.5 μM [3]: > 20 min

O=C(Nc1ccc2oc(-c3ccccc3)nc2c1)N1CCCCC1 [Compound 32]
half-life at 1.5 μM [3]: 10 to 20 min
half-life at 1.5 μM [4]: ≥ 60 min
